Source: patent publication US8735140B2, “Preservation and composition of bioprocess algae for production of lipids, seedstock, and feed” (Kuehnle AgroSystems, Inc., priority 2008, dated 2014)

Experiments:
[1] = system: Dunaliella cells; experiment: Trehalose loading of Dunaliella, shelf storage and recovery in fresh medium; format: cell-based, D. salina; details: 0.5 and 1.0 M trehalose
Protocol: First, cells in log phase are spun down at 1500×g for 10 minutes. Supernatant is decanted and the pellet is gently re-suspended in a minimal volume of medium and placed in a 1 L flask. The cell count of the slurry is 1.776×10^8 cells/ml. Next, four 50 ml tubes are prepared with aliquots of 21 ml of slurry in each tube prior to re-suspension, in a defined extracellular concentration of α-trehalose (α-D-glycosyl-α-D-glycosylpyranoside, Hayashibara Co., in Melis medium at a salinity of 1.0 M NaCl (referred to as 1M Melis). The cells are then spun down again and the pellets are re-suspended in 200 ml of treatment medium, that is, 1M Melis with or without added trehalose. The four preservation treatments in 1M Melis are performed in the following four sets in triplicate: no trehalose ([…]), 0.5M trehalose, 1.0M trehalose, and 2.0M trehalose. The cell density after re-suspension is at 1.865×10^7 cells/ml. During the re-suspension of cell pellets in 1M Melis, 2.0M trehalose, the pellet is not completely broken apart, yielding visible clumps in the suspension. After the re-suspension, cells are transferred to 250 ml flasks and left on the shelf at a temperature of 23-27° C. and light Intensity <5 μE/m^2-sec, without any agitation or aeration. […]

[2] = system: algal cells; experiment: Trehalose preservation, evaporative drying and rehydration; format: cell-based
Protocol: In the experimental set, trehalose supplied from two different manufacturers (Sigma Aldrich Co.; Hayashibara Co.) is used at 0.5 M, 1.0 M, and 2.0 M each, in each of three different media (dH2O, 1M NaCl, 2.75 M NaCl algae media). In the control set, dH2O, 1 M NaCl medium, and 2.75 M NaCl medium are prepared, all lacking trehalose. The starting density of cells used for preliminary experiments is 4.59×10^5 cells/mL. The cells are spun down and re-suspended in trehalose solutions, and further equilibrate overnight at 28° C. Cells are then re-suspended in 10 mL of its corresponding medium and transferred to 25 mL canted neck tissue culture flasks (Falcon Co.). The cultures are allowed to settle and proliferate without shaking under low light (11 μE/m2/sec) for nine days. Cells are counted again to determine whether cells would multiply in each respective medium without intervening sub-culture. […] After a week of drying, all the cells are re-hydrated in 5 mL of 1M NaCl growth medium in the morning and viable cells are counted the same afternoon. […] Viability is determined by growth curves over time, by the percentage of motile cells or by the green appearance as indicative of photosynthetic activity. […]

[3] = system: Chlorella (KAS603); experiment: Trehalose preservation, storage by air drying on paper disk; format: cell-based; details: for % Viability: 0M control = 100%; for Growth: final/initial density
Protocol: (§1) Flask cultures (40 ml) of cells are grown to mid-log phase with a density between 3×10^6 and 3×10^7 cells/ml, and are centrifuged. Culture medium is removed after centrifugation, resulting in more concentrated algae cells. Cells are then re-suspended in fresh medium and left overnight. Cells are centrifuged again the next day in order to remove the medium, and are then re-suspended in fresh or salt water without any nutrient. The cell density of the suspension is determined prior to storage under the various treatments. Cells in 40 ml flask cultures are grown to mid-log phase with a density of between 3×10^6 and 3×10^7 cells/ml, and are centrifuged. Culture medium is removed after centrifugation, resulting in more concentrated algae cells. Cells are then re-suspended in ideal glass solution consisting of fresh culture medium and trehalose at a concentration of 0.1M, 0.3M, and 0.5M (dihydrate trehalose 100 from Hayashibara Co. Ltd, Okayama, Japan), respectively, and left overnight with mild agitation. Cells are centrifuged again to remove the ideal glass solution the next day, and are re-suspended in fresh or salt water without any nutrient. The cell density of the resulting suspension is determined prior to storage under the various treatments. (Some cells were also treated with a 0.5M sorbitol solution). In one specific embodiment, algae cells can be stored under air-dry conditions using autoclaved sterilized filter paper disks (15 mm Whatman Grade 1, Fisher Scientific 09-805-1B). Specifically, after one piece of paper disk is placed into each well of BD Falcon 12-well tissue culture plates, 0.1 ml algae cell suspension is placed onto each disk. The liquid cell suspension is allowed to air dry in a laminar flow hood for 1 hour. After 1 hour, the plates are closed and placed under low light at ambient temperature. Algae stored under the above preservation conditions for 5 months can be subsequently rejuvenated by removing the paper disks from the 12-well plates and placing cells in 5 ml of fresh medium under light. Cell viability is determined by comparing the cell growth in control set with the experimental set. Specifically, cell counts are performed on all samples. The averaged density value (in cells per ml) for all the cultures after treatment is defined as “rejuvenation cell count.” In some samples, the percent recovery of cells immediately after storage is also determined. The formulae are illustrated as follows: Growth=(rejuvenation cell count)/(initial cell count) Cell recovery after storage=(cell density after storage)/(initial cell density), with controls set at 100% cell recovery. Viability after storage and rejuvenation in nutrient medium=(Growth of treatment)/(Growth of control)×100%, with controls set at 100% viability

[4] = system: Tetraselmis (KAS633); experiment: as above; format: cell-based; details: for % Viability: 0M control = 100%; for Growth: final/initial density
Protocol: as §1

[5] = 0.1M trehalose in F/2, 20 weeks storage in water (no nutrients)
[6] = 0.1M trehalose in F/2, 20 weeks storage
[7] = 0.3M trehalose in F/2, 20 weeks storage in water (no nutrients)
[8] = 0.3M trehalose in F/2, 20 weeks storage
[9] = 0.5M trehalose in F/2, 20 weeks storage in water (no nutrients)
[10] = 0.5M trehalose in F/2, 20 weeks storage

OC[C@H]1O[C@H](O[C@H]2O[C@H](CO)[C@@H](O)[C@H](O)[C@H]2O)[C@H](O)[C@@H](O)[C@@H]1O [trehalose, α-D-glycosyl-α-D-glycosylpyranoside]
Functional recovery ([1]; 4.5-week period, FIG. 3): exhibit functional recovery | Functional recovery ([1]; 8-week period, no cell growth observed): negligible functional recovery | Cell appearance of preserved samples versus controls ([2]; after rehydration, light microscope): No significant differences in cell appearance | Cell viability after a week of drying and re-hydration ([2]; in 1M NaCl growth medium, compared with Sigma trehalose and other media): best preserved | Cell colors on paper/in medium [3, 5]: Green/green | Final density after storage and 3 weeks rejuvenation [3, 5]: 2.278 × 10^7 cells/ml | % Viability [3, 6]: (133%) | Growth [3, 6]: 1.433 | Final density after storage and 3 weeks rejuvenation [3, 7]: 4.440 × 10^7 cells/ml | % Viability [3, 8]: (144%) | Growth [3, 8]: 1.55 | Final density after storage and 3 weeks rejuvenation [3, 9]: 3.140 × 10^7 cells/ml | % Viability [3, 10]: (133)% | Growth [3, 10]: 1.43 | Cell colors on paper/in medium [4, 5]: Green/green | Final density after storage and 3 weeks rejuvenation [4, 5]: 8.60 × 10^6 cells/ml | % Viability [4, 6]: (80%) | Growth [4, 6]: 5.51 | Final density after storage and 3 weeks rejuvenation [4, 7]: 2.15 × 10^6 cells/ml | % Viability [4, 8]: (19%) | Growth [4, 8]: 1.32 | Cell colors on paper/in medium [4, 9]: White/clear | Final density after storage and 3 weeks rejuvenation [4, 9]: 1.915 × 10^6 cells/ml | % Viability [4, 10]: (16%) | Growth [4, 10]: 1.10
